Data: US20140171357A1, “VANCOMYCIN DERIVATIVES” (Seachald Pharmaceuticals, Inc., priority 2011, published 2014)
Values after ≈ are worked out from the molar mass of the structure shown.

Key:
[1] = test system: B. anthracis Sterne 105; type: cell-based, Bacillus anthracis; settings: Tween 80 0.002% medium, serum condition not stated
[2] = test system: methicillin-susceptible S. aureus (MSSA, 22); test: MIC broth microdilution, MSSA; settings: for MIC50 / MIC90: Staphylococcus aureus, MSSA
[3] = test system: methicillin-resistant S. aureus (MRSA, 22); test: MIC broth microdilution, MRSA; settings: for MIC50 / MIC90: Staphylococcus aureus, MRSA
[4] = test system: vancomycin-intermediate S. aureus (VISA, 5); test: MIC broth microdilution, VISA
[5] = test system: vancomycin-resistant S. aureus (VRSA, 6); test: MIC broth microdilution, VRSA
[6] = test system: heterogeneous VISA (hVISA, 10); test: MIC broth microdilution, hVISA
[7] = test system: S. pneumoniae (22); test: MIC broth microdilution, S. pneumoniae; settings: S. pneumoniae (22); MHB + lysed horse blood
[8] = test system: Staphylococcus epidermidis (43 strains); test: MIC broth microdilution, S. epidermidis; settings: for MIC50 / MIC90: Staphylococcus epidermidis
[9] = test system: VanA vancomycin-resistant E. faecium (10); test: MIC broth microdilution, VanA E. faecium; settings: for MIC50 / MIC90: Enterococcus faecium
[10] = test system: VanB vancomycin-resistant E. faecium (10); test: MIC broth microdilution, VanB E. faecium; settings: for MIC50 / MIC90: Enterococcus faecium
[11] = test system: S. aureus ATCC 25923; test: Neutropenic murine thigh infection model; settings: for AUCc-t (AUC difference between control and treated animals): 24 h time kill
[12] = test system: VanA vancomycin-resistant E. faecalis (11); test: MIC broth microdilution, VanA E. faecalis; settings: for MIC50 / MIC90: Enterococcus faecalis
[13] = test system: VanB vancomycin-resistant E. faecalis (12); test: MIC broth microdilution, VanB E. faecalis; settings: for MIC50 / MIC90: Enterococcus faecalis
[14] = test system: Staphylococcus aureus (65 strains); test: MIC broth microdilution, S. aureus all isolates; settings: for MIC50 / MIC90: Staphylococcus aureus
[15] = test system: β-hemolytic streptococci (23); test: MIC broth microdilution, β-hemolytic streptococci
[16] = test system: VanC enterococci (22); test: MIC broth microdilution, vanC-carrying enterococci
[17] = test system: vancomycin-susceptible E. faecium (21); test: MIC broth microdilution, vancomycin-susceptible E. faecium; settings: for MIC50 / MIC90: Enterococcus faecium
[18] = test system: vancomycin-susceptible E. faecalis (23); test: MIC broth microdilution, vancomycin-susceptible E. faecalis; settings: for MIC50 / MIC90: Enterococcus faecalis
[19] = test system: E. faecalis; test: MIC broth microdilution, E. faecalis regardless of vancomycin susceptibility; settings: Enterococcus faecalis
[20] = 1 mg/kg single intraperitoneal dose
[21] = 4 mg/kg single intraperitoneal dose
[22] = 16 mg/kg single intraperitoneal dose
[23] = S. aureus (65), all resistance subsets
[24] = β-hemolytic streptococci (23), MHB + lysed horse blood
[25] = E. faecium, vancomycin-susceptible (21)
[26] = E. faecalis, vancomycin-susceptible (23)

CNC(CC(C)C)C(=O)NC1C(=O)NC(CC(N)=O)C(=O)NC2C(=O)NC3C(=O)NC(C(=O)NC(C(=O)O)c4cc(O)c(CNCCOCCOCC[N+](C)(C)C)c(O)c4-c4cc3ccc4O)C(O)c3ccc(c(Cl)c3)Oc3cc2cc(c3OC2OC(CO)C(O)C(O)C2OC2CC(C)(NCc3ccc(OCc4ccc(Cl)c(Cl)c4)cc3)C(O)C(C)O2)Oc2ccc(cc2Cl)C1O (stereo not shown) [Compound 29]
MIC [1]: 0.03 µg/mL
MIC 50% ([2]; MSSA (22)): 0.06 µg/mL
MIC 90% ([2]; MSSA (22)): 0.12 µg/mL
MIC 50% ([3]; MRSA (22)): 0.06 µg/mL
MIC 90% ([3]; MRSA (22)): 0.12 µg/mL
MIC 50% [4]: 0.25 µg/mL
MIC 50% [5]: 4 µg/mL
MIC 50% [6]: 0.06 µg/mL
MIC 90% [6]: 0.12 µg/mL
MIC 50% [7]: 0.03 µg/mL
MIC 90% [7]: 0.06 µg/mL
MIC 50% ([8]; S. epidermidis (43)): 0.03 µg/mL
MIC 90% ([8]; S. epidermidis (43)): 0.06 µg/mL
MIC 50% ([9]; E. faecium, VanA (10)): 1 µg/mL
MIC 90% ([9]; E. faecium, VanA (10)): 2 µg/mL
MIC 50% ([10]; E. faecium, VanB (10)): 0.06 µg/mL
MIC 90% ([10]; E. faecium, VanB (10)): 0.06 µg/mL
Max Kill (maximum decrease from initial infection level) [11, 20]: 0.08 Log10 CFU/thigh
AUCc-t (AUC difference between control and treated animals) [11, 20]: 17.7 (Log10 CFU/thigh)/hr
Max Kill (maximum decrease from initial infection level) [11, 21]: 0.07 Log10 CFU/thigh
AUCc-t (AUC difference between control and treated animals) [11, 21]: 22.6 (Log10 CFU/thigh)/hr
Max Kill (maximum decrease from initial infection level) [11, 22]: −1.05 Log10 CFU/thigh
AUCc-t (AUC difference between control and treated animals) [11, 22]: 45.2 (Log10 CFU/thigh)/hr
in vivo efficacy against S. aureus (in words) ([11]; neutropenic soft tissue infection model): bactericidal characteristics and prolonged in vivo activity
MIC 50% ([12]; E. faecalis, VanA (11)): 4 µg/mL
MIC 90% ([12]; E. faecalis, VanA (11)): 4 µg/mL
MIC 50% ([13]; E. faecalis, VanB (12)): 0.12 µg/mL
MIC 90% ([13]; E. faecalis, VanB (12)): 0.12 µg/mL
MIC 50% [14, 23]: 0.06 µg/mL
MIC 90% [14, 23]: 0.25 µg/mL
fold more potent than teicoplanin and daptomycin ([15]; β-hemolytic streptococci): two- to four
fold more potent than vancomycin ([15]; β-hemolytic streptococci): four- to eight
MIC 50% [15, 24]: 0.03 µg/mL
MIC 90% [15, 24]: 0.12 µg/mL
MIC 50% ([16]; VanC enterococci (22)): 0.12 µg/mL
MIC 90% ([16]; VanC enterococci (22)): 0.5 µg/mL
MIC 50% [17, 25]: 0.03 µg/mL
MIC 90% [17, 25]: 0.06 µg/mL
MIC 50% [18, 26]: 0.12 µg/mL
MIC 90% [18, 26]: 0.12 µg/mL

CCCCCCCCCC(=O)N[C@@H](Cc1c[nH]c2ccccc12)C(=O)N[C@H](CC(N)=O)C(=O)N[C@@H](CC(=O)O)C(=O)N[C@@H]1C(=O)NCC(=O)N[C@@H](CCCN)C(=O)N[C@@H](CC(=O)O)C(=O)N[C@H](C)C(=O)N[C@@H](CC(=O)O)C(=O)NCC(=O)N[C@H](CO)C(=O)N[C@@H]([C@H](C)CC(=O)O)C(=O)N[C@@H](CC(=O)c2ccccc2N)C(=O)O[C@@H]1C [Daptomycin, reference compound]
MIC50 [2]: 0.25 µg/mL (≈ 0.154 µM)
MIC90 [2]: 0.5 µg/mL (≈ 0.309 µM)
MIC50 [3]: 0.25 µg/mL (≈ 0.154 µM)
MIC90 [3]: 0.5 µg/mL (≈ 0.309 µM)
MIC50 [8]: 0.25 µg/mL (≈ 0.154 µM)
MIC90 [8]: 0.5 µg/mL (≈ 0.309 µM)
MIC50 [9]: 2 µg/mL (≈ 1.23 µM)
MIC90 [9]: 2 µg/mL (≈ 1.23 µM)
MIC50 [10]: 2 µg/mL (≈ 1.23 µM)
MIC90 [10]: 2 µg/mL (≈ 1.23 µM)
MIC50 [12]: 1 µg/mL (≈ 0.617 µM)
MIC90 [12]: 2 µg/mL (≈ 1.23 µM)
MIC50 [13]: 0.5 µg/mL (≈ 0.309 µM)
MIC90 [13]: 1 µg/mL (≈ 0.617 µM)
MIC50 [14]: 0.25 µg/mL (≈ 0.154 µM)
MIC90 [14]: 1 µg/mL (≈ 0.617 µM)
MIC50 [16]: 1 µg/mL (≈ 0.617 µM)
MIC90 [16]: 2 µg/mL (≈ 1.23 µM)
MIC50 [17]: 2 µg/mL (≈ 1.23 µM)
MIC90 [17]: 2 µg/mL (≈ 1.23 µM)
MIC50 [18]: 1 µg/mL (≈ 0.617 µM)
MIC90 [18]: 2 µg/mL (≈ 1.23 µM)
MIC50 [19]: 0.5 to 1 µg/mL (≈ 0.309 to 0.617 µM)
MIC90 [19]: 1 to 2 µg/mL (≈ 0.617 to 1.23 µM)

CC(=O)NC[C@H]1CN(c2ccc(N3CCOCC3)c(F)c2)C(=O)O1 [Linezolid, reference compound]
MIC50 [2]: 1 µg/mL (≈ 2.96 µM)
MIC90 [2]: 1 µg/mL (≈ 2.96 µM)
MIC50 [3]: 1 µg/mL (≈ 2.96 µM)
MIC90 [3]: 1 µg/mL (≈ 2.96 µM)
MIC50 [8]: 0.5 µg/mL (≈ 1.48 µM)
MIC90 [8]: 1 µg/mL (≈ 2.96 µM)
MIC50 [9]: 1 µg/mL (≈ 2.96 µM)
MIC90 [9]: 1 µg/mL (≈ 2.96 µM)
MIC50 [10]: 1 µg/mL (≈ 2.96 µM)
MIC90 [10]: 1 µg/mL (≈ 2.96 µM)
MIC50 [12]: 1 µg/mL (≈ 2.96 µM)
MIC90 [12]: 1 µg/mL (≈ 2.96 µM)
MIC50 [13]: 1 µg/mL (≈ 2.96 µM)
MIC90 [13]: 1 µg/mL (≈ 2.96 µM)
MIC50 [14]: 1 µg/mL (≈ 2.96 µM)
MIC90 [14]: 1 µg/mL (≈ 2.96 µM)
MIC50 [16]: 1 µg/mL (≈ 2.96 µM)
MIC90 [16]: 2 µg/mL (≈ 5.93 µM)
MIC50 [17]: 1 µg/mL (≈ 2.96 µM)
MIC90 [17]: 2 µg/mL (≈ 5.93 µM)
MIC50 [18]: 1 µg/mL (≈ 2.96 µM)
MIC90 [18]: 1 µg/mL (≈ 2.96 µM)
MIC50 [19]: 1 µg/mL (≈ 2.96 µM)
MIC90 [19]: 1 µg/mL (≈ 2.96 µM)
